These are literature values, as cited in patent publication US7638651B2, “Substituted cyclohexanones” (Auspex Pharmaceuticals, priority 2007, dated 2009).

For data set [1] the following is noted: for half-life: ketamine: depending on the mode of administration.

Each structure is given as a SMILES string.

Take `CN[C@]1(c2ccccc2Cl)CCCCC1=O` (single isomer, unassigned) [S-(+) isomer]: where the note is “more potent than the R-(−) isomer”, the “potency relative to the R-(−) isomer” value is given as “approximately four”.
With `CNC1(c2ccccc2Cl)CCCCC1=O` (centres unmarked) [Ketamine], the “blood to plasma ratio” value in data set [1] (in vivo) is given as roughly 0.82. For the same compound, in data set [1], the half-life result is recorded as “two to about five”.
With `NC1(c2ccccc2Cl)CCCCC1=O` (centres unmarked) [Norketamine, N-desmethylketamine], in data set [1], the half-life entry was “about five”. For the same compound, the “potency relative to the parent drug” value (as potent as the parent drug (ketamine)) was “roughly one third”.
